Measured values published in patent publication US20190255022A1, “WOUND-HEALING AGENT” (NIPPON CHEMIPHAR CO., LTD., priority 2016, published 2019).
Marks after values point to notes of the source that are not given here.

Test system: wound in diabetes mouse (db/db mouse) model
Experiment: Effect of compound A on wound in diabetes mouse (db/db mouse) model
Assay type: in vivo
Details: for wound area ratio: 0.05 mL once a day, mean±standard error, n=8
Method: The compound A was weighed in the required amount, and polyethylene glycol 400 (PEG400) was added to the compound to prepare liquids having final concentrations of the compound of 0.001, 0.01, and 0.1 w/v %. In order to prepare ointments having final concentrations of the compound of 0.0005, 0.005, and 0.05 w/w %, PEG4000 melted by warming at 65° C. was added to the liquids, and the liquids were stirred until they solidified at room temperature to prepare ointments having concentrations of the compound of 0.0005, 0.005, and 0.05 w/w %.
Diabetes mice (db/db mice) were anesthetized with isoflurane, and a 1.5-cm square of skin including the back median line as the center axis of each mouse was removed with ophthalmic scissors. A polyurethane film was stuck so as to cover the skin-lacking wound part and surrounding parts to prepare the wound.
The administration was performed once a day at a volume of 0.05 mL. As for the administration method, the administration was performed with a disposable polypropylene injection syringe attached to a 23G needle by inserting the needle into a gap between the wound and the polyurethane film covering the wound part. On the day when the wound was produced and the days when the wound area was measured, the compound was administered to the wound part by using a disposable polypropylene injection syringe attached to a 23G needle before sticking the polyurethane film.
On days 14 to 20 of the administration (the day on which the administration was started is day 1 of the administration), the administration was performed by peeling off the polyurethane film under isoflurane anesthesia, cleaning the wound with absorbent cotton containing physiological saline, administering the ointment with a disposable polypropylene injection syringe, and then the polyurethane film was stuck on again.
On days 1, 4, 8, 12, 16, and 21 of the administration, the wound part was traced. That is, after the polyurethane film was removed (in the case of the day 1 of the administration, before the administration and sticking of the film), a plastic sheet was placed on the wound part, the contour of the wound part was traced on the plastic sheet (tracing was performed by using a felt pen so that the external periphery of the wound part would coincide with the internal periphery of the line drawn with the felt pen), and a copy of the sheet on which tracing was performed was used as the source of raw data. The area of the inside of the traced line (mm^2) was measured once using an area-line meter (PLANIX EX, Tamaya Technics Inc.) on the copy of the sheet on which tracing was performed. The results are expressed as ratio of change (%) calculated from the wound area (mm^2) of each measurement day, and the wound area (mm^2) of the day 1 of the wound creation (before administration).
Significant difference test was performed by using a commercial statistical analysis program (SAS System, SAS Institute Japan, Inc.). Statistical significance levels lower than 5% were considered to be significant, and the results are indicated as those of the level lower than 5% (*; p<0.05) and those of the level lower than 1% (**; p<0.01).
As for the test method, the multiple comparison of Dunnett's method was used for the comparison between the vehicle-administered group and compound A-administered groups.

With `Cc1cc2c(CCc3sc(-c4ccc(C(F)(F)F)cc4)nc3C(C)C)noc2cc1OCC(=O)O` [compound A, [3-[2-[4-isopropyl-2-(4-trifluoromethyl)phenyl-5-thiazolyl]ethyl]-5-methyl-1,2-benzisoxazol-6-yl]oxyacetic acid] the wound area ratio (0.0005% compound A ointment, day 1 of administration) was 100.0 ± 0.0%, the wound area ratio (0.0005% compound A ointment, day 4 of administration) was 96.9 ± 1.7% and the wound area ratio (0.0005% compound A ointment, day 8 of administration) was 95.2 ± 2.4%. The wound area ratio (0.0005% compound A ointment, day 12 of administration) was 82.9 ± 2.7%, the wound area ratio (0.0005% compound A ointment, day 16 of administration) was 73.4 ± 2.7% and the wound area ratio (0.0005% compound A ointment, day 21 of administration) was 67.6 ± 3.8%. For the same compound, the wound area ratio (0.005% compound A ointment, day 1 of administration) was 100.0 ± 0.0%, the wound area ratio (0.005% compound A ointment, day 4 of administration) was 97.2 ± 2.4% and the wound area ratio (0.005% compound A ointment, day 8 of administration) was 95.0 ± 2.2%. For the same compound, the wound area ratio (0.005% compound A ointment, day 12 of administration) was 84.1 ± 1.6%, the wound area ratio (0.005% compound A ointment, day 16 of administration) was 72.1 ± 1.7% and the wound area ratio (0.005% compound A ointment, day 21 of administration) was 69.1 ± 3.0%. The wound area ratio (0.05% compound A ointment, day 1 of administration) was 100.0 ± 0.0%, the wound area ratio (0.05% compound A ointment, day 4 of administration) was 96.0 ± 2.1% and the wound area ratio (0.05% compound A ointment, day 8 of administration) was 90.3 ± 2.6* %. The wound area ratio (0.05% compound A ointment, day 12 of administration) was 78.6 ± 1.6** %, the wound area ratio (0.05% compound A ointment, day 16 of administration) was 69.2 ± 2.1% and the wound area ratio (0.05% compound A ointment, day 21 of administration) was 65.5 ± 2.1%. For the same compound, the “wound area compared with the vehicle-administered group” value (0.05% compound A-administered group, day 8 and day 12 of the administration) was “significantly smaller”.
